“Also recorded” adds a separate entry of the source.
Legend:
[1] = tested on: monkeys; details: prolonged daily dosing, 4 months-2 years; cited from earlier work
[2] = tested on: bone marrow colony forming units / CD34+ hematopoietic stem cells; assay: Bone marrow CFU and CD34+ cells in non-irradiated monkeys 24 hours after first PTH dose; format: in vivo, cynomolgus monkeys; details: non-irradiated CYNOs
Description: (§1) Two cynomolgus monkeys (hereafter referred to as CYNOs) were treated with a 21 day course of daily subcutaneous PTH at either 100 mcg/kg (monkey 7801) or 50 mcg/kg (monkey 7872). Hematopoietic outcome measures included:
(a) bone marrow analysis for colony forming units 24 hours after first dose of PTH;
(b) bone marrow analysis for CD34+ hematopoietic stem cells 24 hours after first dose of PTH;

[3] = tested on: cynomolgus monkeys; assay: Toxicity studies of a 21 day course of PTH in monkeys (cardiac monitoring, serum calcium, kidney MRI); format: in vivo
Description: as §1
(d) MRI of the kidneys upon completion of the 21 day course.
Three cynomolgus monkeys (hereafter referred to as CYNOs) were treated with a 21 day course of daily subcutaneous PTH at either 50 ug/kg (7872), 100 ug/kg (7801), or 250 ug/kg (7876).
Two were irradiated (7801 and 7875) at a lethal dose of 682 cGy and administered 100 ug/kg. Of note, 7801 underwent a washout period prior to undergoing irradiation and subsequent PTH therapy
Outcome measures included:
(a) continuous cardiac monitoring and serum calcium
(e) MRI of the kidneys upon completion of the 21 day course.

[4] = clinical studies, cited from earlier work
[5] = Serum PTH levels in mice after final dose (Mesoscale); format: in vivo; details: 400 mcg/kg PTH, final dose on day 28
Description: (§2) Bone marrow was analyzed for colony forming units (CFU) (FIGS. 9A and 9B), hematopoietic stem cell content. Serum was analyzed for PTH levels on the final day of the study to determine the duration of detectable PTH in the serum following the final dose.

[6] = Serum PTH levels for PK analysis in non-irradiated monkeys; format: in vivo, cynomolgus monkeys; details: non-irradiated monkeys 7801 (100 mcg/kg/d) and 7872 (50 mcg/kg/d), days 1 and 18
Description: PTH becomes undetectable by 4-6 hours after dosing, despite extremely high doses of PTH.
as §1
(c) serum PTH levels; and […]

[7] = tested on: macaque monkeys following chemo-ablative therapy and MHC mis-matched allogeneic stem cell transplant; assay: Daily PTH after chemo-ablative conditioning and MHC mismatched allogeneic stem cell transplant; format: in vivo
From the text: A previously unrecognized role for PTH on mitigation of myelosuppression in macaque monkeys is described. Following chemo-ablative therapy and MHC mis-matched allogeneic stem cell transplant, animals were randomized to daily PTH treatment (5 mcg/kg/day subcutaneously) or placebo. […] Following myeloablation, PTH may act to increase megakaryopoiesis through increased production of HSC.
(§3) Bone marrow transplant studies by Calvi and colleagues characterized this process in the syngeneic mouse model of osteoblastic activation. To see if PTH could enhance allogeneic stem cell engraftment in nonhuman primates (monkeys), donors were MHC mismatched based on recipient proliferation against donor cells in the mixed lymphocyte culture and by disparity at the class I antigen, Bw6. This disparity permitted tracking of Bw6+ donor cells following transplantation into Bw6-recipients. Eight control recipients were conditioned with thymoglobulin, rituxan, fludarabine, and melphalan. Six animals received the conditioning regimen supplemented with parathyroid hormone beginning on the first day of the conditioning regimen and administered daily at a dose of 5 micrograms/kg subcutaneously. An allogeneic stem cell transplant consisting of 2−4×10^6 CD34+cells/kg was administered on day 0. Outcome measures included PTH levels, CBCs, and donor engraftment via flow cytometry.

[8] = tested on: rat; details: prolonged daily dosing, 4 months-2 years; cited from earlier work
[9] = PTH levels after subcutaneous administration in transplanted monkeys; format: in vivo, nonhuman primates (monkeys); details: 5 micrograms/kg subcutaneously
From the text: as §3

[10] = tested on: bone marrow colony forming units / hematopoietic stem cells; assay: Bone marrow colony forming units and hematopoietic stem cell content in irradiated mice; format: in vivo, B6 mice; details: 772 cGy
Description: In a second experiment, a sub-group of animals were euthanized on day 7, n=3 per cohort. Bone marrows were flushed and CFUs were performed.
B6 mice underwent 772 cGy irradiation and a daily total dose of 400 mcg/kg/day of PTH.
One group of animals was euthanized on day 3 (n=3) one group on day 7 (n=4) and one group (n=3) on day 28.
as §2
Mice underwent exposure to 772 cGy radiation and were randomized to treatment of daily PTH 400 mcg/kg or saline. On days 3 (n=3) and 7 (n=4) bone marrow was analyzed for colony forming units.
Following irradiation with 772 cGy, mice underwent bone marrow analysis on days 3 (n=3) or 7 (n=4) for hematopoietic stem cell content. […] (FIG. 11)

[11] = CYNOs, 21 day course, 100 mcg/kg or 50 mcg/kg
[12] = highest dose, 250 ug/kg, administered for 21 days
[13] = macaques, PTH 5 mcg/kg/day sc, statistical significance by 4 weeks

In the case of `CC[C@H](C)[C@H](NC(=O)[C@H](CCC(=O)O)NC(=O)[C@H](CO)NC(=O)[C@@H](NC(=O)[C@@H](N)CO)C(C)C)C(=O)N[C@@H](CCC(N)=O)C(=O)N[C@@H](CC(C)C)C(=O)N[C@@H](CCSC)C(=O)N[C@@H](Cc1cnc[nH]1)C(=O)N[C@@H](CC(N)=O)C(=O)N[C@@H](CC(C)C)C(=O)NCC(=O)N[C@@H](CCCCN)C(=O)N[C@@H](Cc1cnc[nH]1)C(=O)N[C@@H](CC(C)C)C(=O)N[C@@H](CC(N)=O)C(=O)N[C@@H](CO)C(=O)N[C@@H](CCSC)C(=O)N[C@@H](CCC(=O)O)C(=O)N[C@@H](CCCN=C(N)N)C(=O)N[C@H](C(=O)N[C@@H](CCC(=O)O)C(=O)N[C@@H](Cc1c[nH]c2ccccc12)C(=O)N[C@@H](CC(C)C)C(=O)N[C@@H](CCCN=C(N)N)C(=O)N[C@@H](CCCCN)C(=O)N[C@@H](CCCCN)C(=O)N[C@@H](CC(C)C)C(=O)N[C@@H](CCC(N)=O)C(=O)N[C@@H](CC(=O)O)C(=O)N[C@H](C(=O)N[C@@H](Cc1cnc[nH]1)C(=O)N[C@@H](CC(N)=O)C(=O)N[C@@H](Cc1ccccc1)C(=O)O)C(C)C)C(C)C` [PTH, Teriparatide], the “doses at which toxicity was observed” value [1] is given as > 40 µg/kg, the “CFU-GM and CFU-M in bone marrow aspirates” value ([2]; 50 or 100 mcg/kg, 24 hours after first dose, more pronounced with higher dose) is given as “increases” and the “Erythroid, megakaryocyte lineages (BFU, CFU-GEMM) in bone marrow aspirate” value ([2]; 50 or 100 mcg/kg, after first dose) is given as “increase”. For the same molecule, the “bone marrow analysis, all lineages, by PTH dose” value ([2]; 50 vs 100 mcg/kg) was “dose response”, the “percent of CD34+ hematopoietic stem cells vs pre-treatment levels” value ([2]; 24 hours after first dose) was “increases” and the tolerability ([3]; 250 ug/kg up to 19 days, non-irradiated cynomolgus monkey) was “well tolerated”. For the same molecule, the Cardiac monitoring [3, 11] was “some shortening of the Qt segment but no life threatening arrythmias”, the serum calcium peak [3, 11] was ≤ 11.5 mg/dL and the “time for serum calcium to return to normal range after dosing” value [3, 11] was 6 to 10 h. The “T wave height and ST-intervals over time” value [3, 12] was “some decrease”, the arrhythmias [3, 12] was “No life-threatening arrhythmias” and the “tolerance in toxicity studies” value ([3]; irradiated and non-irradiated monkeys, doses comparable to doses to ameliorate radiation damage) was “tolerated”. For the same molecule, the serum calcium levels ([3]; irradiated monkeys 7875 and 7801, 100 ug/kg, exception day 19 for 7801) was “normal calcium levels except one timepoint”, the BUN or creatinine ([3]; monkeys 7801 (100 mcg/kg) and 7872 (50 mcg/kg), 21 day course) was “No change” and the “MRI examination of the kidneys” value ([3]; monkeys 7801 (100 mcg/kg) and 7872 (50 mcg/kg), after 21 day course) was “no cystic degeneration or tumors”. The serum calcium level ([3]; non-irradiated animal 7876, 250 ug/kg, 21st day of dosing, with some somnolent behavior) was 17 mg/dL, the “toxicity during the first 20 days of dosing” value ([3]; three non-irradiated cynomolgus monkeys, 50, 100, 250 ug/kg, calcium slightly elevated) was “did not experience toxicity” and the toxic effect ([4]; even with chronic treatment) was “no toxic effect”. For the same molecule, the “biological potency vs full-length PTH protein” value [4] was “comparable biological potency”, the “PTH in sera after final PTH dose” value [5] was “some persistence of PTH at 24 hours” and the “time of return of serum PTH to baseline after final dose” value [5] was 48 h. The “time after dosing by which PTH becomes undetectable in serum” value [6] was 4 to 6 h, the “hemoglobin (serial CBCs)” value ([7]; PTH group vs control group) was “no significant difference” and the “engrafting donor B cells” value ([7]; macaques, PTH 5 mcg/kg/day sc) was “significantly increased”. The “host (recipient) T cells” value ([7]; macaques, PTH 5 mcg/kg/day sc) was “no significant increase; also recorded: little or no effect”, the “host or donor myeloid lineage CD14 or CD11b+ cells” value ([7]; macaques, PTH 5 mcg/kg/day sc) was “no significant increase” and the “engrafting donor T cells (CD4 and CD8 subsets)” value ([7]; macaques, PTH 5 mcg/kg/day sc vs control) was “significant increases; also recorded: significantly increased; also recorded: increased over control animals”. For the same molecule, the “engrafting donor CD34+ cells” value [7, 13] was “significantly increased; also recorded: significant increases”, the “host CD34+ stem cells” value [7, 13] was “significantly increased; also recorded: significant increases” and the “platelet counts in peripheral blood” value ([7]; macaques, PTH 5 mcg/kg/day subcutaneously vs untreated controls, first observed 7 days after PTH therapy) was “statistically significant increase; also recorded: increased levels of platelets”. For the same molecule, the “recipient granulocytes or natural killer cells” value ([7]; macaques, PTH 5 micrograms/kg sc daily) was “No effect”, the “iliac crest bone biopsy findings after vs before PTH treatment” value ([7]; monkeys 7150 and 7154, 5 weeks after PTH treatment) was “increased cortical bone, increased osteoblasts, and loss of adiposity; also recorded: adiposity was reduced, and cortical bone formation increased” and the “doses at which toxicity was observed” value [8] was “exceeding 75 mcg/kg”. For the same molecule, the “time by which PTH levels were undetectable” value [9] was ≤ 4 h, the Tmax ([9]; monkey, in vivo, sc, read-out: time of peak PTH levels after administration (converted)) was 30 min and the “CFU capabilities of bone marrow” value ([10]; PTH 400 mcg/kg/day x 7 days, euthanized on day 7, n=3 per cohort, compared to other groups) was “greatest preservation of CFU capabilities; also recorded: preserves CFU”. The “CFU-GM and CFU-M in bone marrow” value ([10]; daily PTH 400 mcg/kg vs saline, days 3 and 7) was “increased with PTH therapy”, the “bone marrow hematopoietic stem cell content, treatment vs control” value ([10]; daily PTH 400 mcg/kg, day 3) was “no statistical significance” and the “increase in bone marrow stem cell content” value ([10]; daily PTH 400 mcg/kg, day 7) was 5 fold. The “BFU and CFU-GEMM in bone marrow” value ([10]; daily PTH 400 mcg/kg, trend more pronounced on day 7) was “increased with PTH treatment”.
